According to the NIST ThermoML archive (doi:10.1016/j.tca.2016.03.016):
± gives the expanded uncertainty stated by the source.

How the values were obtained:
[1] = Molar enthalpy of transition or fusion; details: DSC

Q: Which results are given for CC(C)(CO)CO [2,2-dimethyl-1,3-propanediol]?
A: Molar enthalpy of transition or fusion ([1]; Crystal 1): 3.98 ± 0.22 kJ/mol; Molar enthalpy of transition or fusion ([1]; Crystal 2): 11.1 ± 0.52 kJ/mol; Normal melting temperature (Crystal 1, DTA): 128.50 ± 1.1 °C; Triple point temperature (Crystal 2, DSC): 314.95 ± 1.2 K
